Laboratory results from patent publication US10624875B2, “Methods and compositions for treating schizophrenia” (The Johns Hopkins University, priority 2012, dated 2020).

Columns and labels:
Assay type in all cases: in vivo, human
entorhinal cortex (EC) = test: fMRI activity during explicit 3-alternative forced choice task, entorhinal cortex; conditions: aMCI subjects, 125 mg twice a day for two weeks, versus placebo
Method: A within-subjects trial of 8 weeks duration, involving 17 amnestic MCI (aMCI) subjects and 17 age-matched controls with a low dose treatment of levetiracetam is conducted. During the course of the study, each aMCI subject receives both drug and placebo treatments separately in two periods of two weeks each, with the order of treatments among different aMCI subjects counterbalanced (see FIG. 7). Age-matched control subjects treated with placebo serve as a further control. Cognitive testing and fMRI imaging data are obtained from the subjects after each two week period of drug/placebo treatment. As described above, the drug treatment period is the two weeks preceding Visit 1 or 2 (with the two week period preceding the other Visit being the placebo phase). […] Imaging data are obtained through high-resolution methods developed in the Stark laboratory. Data are collected on a Phillips 3 Tesla scanner (Eindhoven, The Netherlands) equipped with an 8-channel SENSE (Sensitivity Encoding) head coil, located at the F.M. Kirby Research Center for Functional Brain Imaging at the Kennedy Krieger Institute (Baltimore, Md.). […] Group data are analyzed using a two-way Analysis of Variance (ANOVA) with trial types and group as fixed factors, and subject as a random factor nested within group. […]

aMCI subjects [1] = test: Buschke Selective Reminding Test - Delayed Recall; conditions: 125 mg twice a day for two weeks
Method: (§1) A within-subjects trial of 8 weeks duration, involving 17 amnestic MCI (aMCI) subjects and 17 age-matched controls with a low dose treatment of levetiracetam is conducted. During the course of the study, each aMCI subject receives both drug and placebo treatments separately in two periods of two weeks each, with the order of treatments among different aMCI subjects counterbalanced (see FIG. 7). Age-matched control subjects treated with placebo serve as a further control. Cognitive testing and fMRI imaging data are obtained from the subjects after each two week period of drug/placebo treatment.
All participants undergo neuropsychological evaluation at the time of assessment for treatment efficacy (Visits 1 and 2), as well as at the Baseline Visit. The evaluation occurs outside of the scanner and includes the Buschke Selective Reminding Test (Buschke and Fuld, 1974) and the Verbal Paired Associates subtest, the Logical Memory subtest, the Visual Reproduction subtest of the Wechsler Memory Scale-Revised (WMS-R) (Wechsler, 1997), and the Benton Visual Retention Test, as these tasks are particularly sensitive to medial temporal lobe function and early memory problems (Marquis et al., 2002 and Masur et al., 1994). […]

aMCI subjects [2] = test: Verbal Paired Associates Test - Recognition; conditions: 125 mg twice a day for two weeks
Method: as §1
All participants undergo neuropsychological evaluation at the time of assessment for treatment efficacy (Visits 1 and 2), as well as at the Baseline Visit. […]
As described above, the drug treatment period is the two weeks preceding Visit 1 or 2 (with the two week period preceding the other Visit being the placebo phase). For the subjects receiving the drug treatment, half a scored 250 mg tablet of levetiracetam is used to achieve a dose of […], which is approximately 3.6 mg/kg/day (assuming an average adult human weight of 70 kg).

CC[C@@H](C(N)=O)N1CCCC1=O [levetiracetam, (2S)-2-(2-oxopyrrolidin-1-yl) butanamide]
EC activity during memory judgments (entorhinal cortex (EC)): increases EC activity
performance in Buschke Selective Reminding Test - Delayed Recall (aMCI subjects [1]): fail to rescue performance
performance in Verbal Paired Associates Test - Recognition (aMCI subjects [2]): fail to rescue performance
